Measurements reported in PubChem BioAssay AID1918944 (Molecular Pharmacology Branch, DTP, NCI, 2023).
Where “and” joins values, the source holds several entries; their conditions need not be identical. Equal values may be shown once.

Tested on: 786-0 complex spheroid viability
Experiment: Anticancer human tumor 786-0 cell line growth inhibition;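 further: spheroids exposed to agents for seven days before readout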
Details: for viability, T/C: stronger effect = lower value
How it was run: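 Drug combinations with the LSD1 inhibitor iadademstat tested on tumor cells co-cultured as spheroids with endothelial cells and mesenchymal stem cells. Concentrations descended in half-log increments from clinical Cmax or 10 microM.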

[1] = curve of first compound, second compound 0.1 µM
[2] = curve of first compound, second compound 0.316 µM
[3] = curve of first compound, second compound 1 µM
[4] = curve of first compound, second compound 3.16 µM
[5] = curve of first compound, second compound 10 µM

SMILES: CCc1c2c(nc3ccc(O)cc13)-c1cc3c(c(=O)n1C2)COC(=O)[C@]3(O)CC + NC1CC1c1ccc(-c2cccc(O)c2)cc1
- IC50 [1]: < 0.949 nM
- IC50 [2]: < 0.949 nM
- IC50 [3]: < 0.949 nM
- IC50 [4]: < 0.949 nM
- IC50 [5]: < 0.949 nM
- viability, T/C (second compound 0.1 µM, first compound 0.000949 µM): 4.23%
- viability, T/C (second compound 0.1 µM, first compound 0.003 µM): 4.35%
- viability, T/C (second compound 0.1 µM, first compound 0.00949 µM): 4.15%
- viability, T/C (second compound 0.1 µM, first compound 0.03 µM): 6.01%
- viability, T/C (second compound 0.1 µM, first compound 0.0949 µM): 8.35%
- viability, T/C (second compound 0.1 µM, first compound 0.3 µM): 9.73%
- viability, T/C (second compound 0.316 µM, first compound 0.000949 µM): 4.4%
- viability, T/C (second compound 0.316 µM, first compound 0.003 µM): 3.22%
- viability, T/C (second compound 0.316 µM, first compound 0.00949 µM): 4.02%
- viability, T/C (second compound 0.316 µM, first compound 0.03 µM): 6.1%
- viability, T/C (second compound 0.316 µM, first compound 0.0949 µM): 8.62%
- viability, T/C (second compound 0.316 µM, first compound 0.3 µM): 9.44%
- viability, T/C (second compound 1 µM, first compound 0.000949 µM): 3.72%
- viability, T/C (second compound 1 µM, first compound 0.003 µM): 3.14%
- viability, T/C (second compound 1 µM, first compound 0.00949 µM): 4.57%
- viability, T/C (second compound 1 µM, first compound 0.03 µM): 6.53%
- viability, T/C (second compound 1 µM, first compound 0.0949 µM): 7.76%
- viability, T/C (second compound 1 µM, first compound 0.3 µM): 8.97%
- viability, T/C (second compound 3.16 µM, first compound 0.000949 µM): 4.08%
- viability, T/C (second compound 3.16 µM, first compound 0.003 µM): 3.82%
- viability, T/C (second compound 3.16 µM, first compound 0.00949 µM): 4.22%
- viability, T/C (second compound 3.16 µM, first compound 0.03 µM): 6.42%
- viability, T/C (second compound 3.16 µM, first compound 0.0949 µM): 7.92%
- viability, T/C (second compound 3.16 µM, first compound 0.3 µM): 7.63%
- viability, T/C (second compound 10 µM, first compound 0.000949 µM): 3.29%
- viability, T/C (second compound 10 µM, first compound 0.003 µM): 4.49%
- viability, T/C (second compound 10 µM, first compound 0.00949 µM): 5.68%
- viability, T/C (second compound 10 µM, first compound 0.03 µM): 8.54%
- viability, T/C (second compound 10 µM, first compound 0.0949 µM): 9.57%
- viability, T/C (second compound 10 µM, first compound 0.3 µM): 9.08%

SMILES: COc1cc(Nc2ncc3c(n2)-c2ccc(Cl)cc2C(c2c(F)cccc2OC)=NC3)ccc1C(=O)O
- viability, T/C (compound 0.00316 µM): 109% and 97.4%
- viability, T/C (compound 0.01 µM): 90.9% and 98.9%
- viability, T/C (compound 0.0316 µM): 67.5% and 84.2%
- viability, T/C (compound 0.1 µM): 66.5% and 68.7%
- viability, T/C (compound 0.316 µM): 54.4% and 56%
- viability, T/C (compound 1 µM): 37.1% and 44.9%
- IC50 (curve of compound): 329 nM and 565 nM

SMILES: Nc1ncn(C2CC(O)C(CO)O2)c(=O)n1 (stereo not drawn) + NC1CC1c1ccc(-c2cccc(O)c2)cc1
- IC50 [1]: > 1000 nM
- IC50 [2]: > 1000 nM
- IC50 [3]: > 1000 nM
- IC50 [4]: > 1000 nM
- IC50 [5]: > 1000 nM
- viability, T/C (second compound 0.1 µM, first compound 0.00316 µM): 119%
- viability, T/C (second compound 0.1 µM, first compound 0.01 µM): 122%
- viability, T/C (second compound 0.1 µM, first compound 0.0316 µM): 107%
- viability, T/C (second compound 0.1 µM, first compound 0.1 µM): 97%
- viability, T/C (second compound 0.1 µM, first compound 0.316 µM): 99.1%
- viability, T/C (second compound 0.1 µM, first compound 1 µM): 78.4%
- viability, T/C (second compound 0.316 µM, first compound 0.00316 µM): 125%
- viability, T/C (second compound 0.316 µM, first compound 0.01 µM): 113%
- viability, T/C (second compound 0.316 µM, first compound 0.0316 µM): 107%
- viability, T/C (second compound 0.316 µM, first compound 0.1 µM): 96.5%
- viability, T/C (second compound 0.316 µM, first compound 0.316 µM): 88.8%
- viability, T/C (second compound 0.316 µM, first compound 1 µM): 82.3%
- viability, T/C (second compound 1 µM, first compound 0.00316 µM): 122%
- viability, T/C (second compound 1 µM, first compound 0.01 µM): 119%
- viability, T/C (second compound 1 µM, first compound 0.0316 µM): 107%
- viability, T/C (second compound 1 µM, first compound 0.1 µM): 96.1%
- viability, T/C (second compound 1 µM, first compound 0.316 µM): 90.9%
- viability, T/C (second compound 1 µM, first compound 1 µM): 82.5%
- viability, T/C (second compound 3.16 µM, first compound 0.00316 µM): 113%
- viability, T/C (second compound 3.16 µM, first compound 0.01 µM): 115%
- viability, T/C (second compound 3.16 µM, first compound 0.0316 µM): 95.7%
- viability, T/C (second compound 3.16 µM, first compound 0.1 µM): 94.8%
- viability, T/C (second compound 3.16 µM, first compound 0.316 µM): 84%
- viability, T/C (second compound 3.16 µM, first compound 1 µM): 75.6%
- viability, T/C (second compound 10 µM, first compound 0.00316 µM): 108%
- viability, T/C (second compound 10 µM, first compound 0.01 µM): 102%
- viability, T/C (second compound 10 µM, first compound 0.0316 µM): 97.1%
- viability, T/C (second compound 10 µM, first compound 0.1 µM): 93%
- viability, T/C (second compound 10 µM, first compound 0.316 µM): 78.3%
- viability, T/C (second compound 10 µM, first compound 1 µM): 72.9%

SMILES: CCN(c1cc(-c2ccc(CN3CCOCC3)cc2)cc(C(=O)NCc2c(C)cc(C)[nH]c2=O)c1C)C1CCOCC1
- viability, T/C (compound 0.00949 µM): 100%
- viability, T/C (compound 0.03 µM): 103% and 105%
- viability, T/C (compound 0.0949 µM): 106% and 100%
- viability, T/C (compound 0.3 µM): 104% and 102%
- viability, T/C (compound 0.949 µM): 102% and 98%
- viability, T/C (compound 3 µM): 97.4% and 96.9%
- IC50 (curve of compound): > 3000 nM

SMILES: O=C(C=Cn1cnc(-c2cc(C(F)(F)F)cc(C(F)(F)F)c2)n1)NNc1cnccn1
- viability, T/C (compound 0.00316 µM): 90.7% and 92.3%
- viability, T/C (compound 0.01 µM): 61.1% and 63.3%
- viability, T/C (compound 0.0316 µM): 39.5% and 47.2%
- viability, T/C (compound 0.1 µM): 29% and 39.9%
- viability, T/C (compound 0.316 µM): 20.6% and 32.5%
- viability, T/C (compound 1 µM): 15.3% and 25.6%
- IC50 (curve of compound): 18.5 nM and 27.6 nM

SMILES: Nc1ncn(C2CC(O)C(CO)S2)c(=O)n1 (stereo not drawn)
- viability, T/C (compound 0.000949 µM): 110% and 99.7%
- viability, T/C (compound 0.003 µM): 109% and 112%
- viability, T/C (compound 0.00949 µM): 117% and 112%
- viability, T/C (compound 0.03 µM): 103% and 102%
- viability, T/C (compound 0.0949 µM): 67.7% and 83.2%
- viability, T/C (compound 0.3 µM): 30.5% and 47.9%
- IC50 (curve of compound): 164 nM and 280 nM
